{"source": "patent US20220117989A1", "about": "“COMPOSITIONS AND METHODS FOR INDUCING OR SUPPLEMENTING SOCS3 TO ABROGATE TUMOR GROWTH AND PROLIFERATIVE RETINOPATHY” (Children's Medical Center Corporation, priority 2019, published 2022)", "key": {"[1]": {"tested_on": "tumor cell", "conditions": "mouse, in vivo"}, "[2]": {"tested_on": "Lewis lung carcinoma cell line", "experiment": "Lewis lung carcinoma (LLC) cells implanted in Socs3f/f and Socs3 Nestin ko mice, tumor growth curves", "type": "in vivo, mouse"}, "[3]": {"tested_on": "B16F10-Luciferase Melanoma cell line", "type": "in vivo, mouse"}, "[4]": {"tested_on": "tumor associated macrophages", "experiment": "FACS analysis of tumor macrophage populations (M1, M2, TIDC)", "type": "in vivo, mouse", "excerpt": "The impact of the above-recited modes of Socs3 modulation upon monocyte differentiation was examined (FIGS. 20-26), employing FACS analysis of monocyte populations (FIG. 20 provides an overview of the FACS approach, where green cells were positively charged and therefore sorted towards an anode plate while negatively charged red cells were sorted toward a […])."}, "[5]": {"tested_on": "tumors", "experiment": "FACS of immune cells isolated from tumors treated with Naringenin or vehicle control", "type": "in vivo", "description": "FIG. 45 is a series of plots quantifying the tumor volume, total tumor cells isolated from tumors, total CD45 positive cells and percentage of CD45 positive cells vs. total cells in control- or Naringenin-treated tumors. 1,2,3,4,5 represents the individual tumor in each group. In order to determine whether Naringenin influences the infiltrating of different immune cell types into tumors, fluorescence-activated cell sorting (FACS) was conducted on cells isolated from tumors treated with Naringenin or vehicle control."}, "[6]": {"tested_on": "Socs3", "experiment": "Socs3 levels after naringenin administration to tumor-bearing mice", "type": "in vivo, mouse", "excerpt": "The surprising efficacy of localized Socs3 overexpression in reducing tumor growth prompted interest in identifying compounds capable of up-regulating Socs3. One candidate molecule for up-regulation of Socs3 was Naringenin, a flavanone compound. […] Naringenin administration was also observed to have shrunk tumors at the day 12-13 timepoint examined, with 100% of tumors of Socs3f/f mice and 60% of tumors in Socs3 nestin conditional knockout mice observed to have shrunk at day 13 of the timecourse (FIGS. 18B and 18C)."}, "[7]": {"tested_on": "LLC tumor", "type": "in vivo, mouse", "conditions": "as compared to PBS-treated controls", "excerpt": "The effect of donepezil treatment was also examined in wild-type, heterozygote alpha-7 AChR knockout mice and homozygote alpha-7 AChR knockout mice (FIG. 40A)."}, "[8]": {"conditions": "agent administered to model mice, versus control animals"}}, "note": "Where two headings read alike, the source gives them in different places.", "data": [{"molecule": "Botulinum toxin [Botox]", "values": [{"measurement": "tumor growth, nestin-conditional Socs3 knockout mice", "setting": "[1]", "result": "no additional effect on tumor growth"}, {"measurement": "tumor growth, wild-type mice", "setting": "[1]", "result": "effectively mimicked the tumor growth effect of nestin-conditional Socs3 knockout"}, {"measurement": "tumor seeding", "setting": "[1]", "result": "promoted tumor seeding"}]}, {"molecule": "alpha-bungarotoxin [a-BTX]", "values": [{"measurement": "tumor growth, LLC tumor cells", "setting": "[2]; mouse, in vivo", "result": "promoted tumor growth"}, {"measurement": "tumor growth, B16F10 tumor cells", "setting": "[3]; mouse, in vivo", "result": "promoted tumor growth"}, {"measurement": "TIDC population (CD45+; F4/80+; CD11c+ cells)", "setting": "[4]; mouse, in vivo", "result": "contracted"}]}, {"molecule": "O=C1C[C@@H](c2ccc(O)cc2)Oc2cc(O)cc(O)c21", "note": "[Naringenin]", "values": [{"measurement": "tumors observed to have shrunk, Socs3f/f mice", "setting": "[2]; day 13 of the timecourse, Socs3f/f mice", "result": 100, "unit": "%"}, {"measurement": "tumors observed to have shrunk, Socs3 nestin conditional knockout mice", "setting": "[2]; day 13 of the timecourse, Socs3 nestin conditional knockout mice", "result": 60, "unit": "%"}, {"measurement": "tumor growth, naringenin administration", "setting": "[2]; treatment administered on day 4, Socs3-containing and Socs3 nestin conditional knockout mice", "result": "significantly decreased tumor growth"}, {"measurement": "population of CD4+ T cells in the tumors", "setting": "[5]; Naringenin treatment", "result": "did not change"}, {"measurement": "percentage of CD45+ γδ T cells", "setting": "[5]; Naringenin-treated group", "result": "increased"}, {"measurement": "CD8+ T cell recruitment into tumors", "setting": "[5]; Naringenin-treated tumors", "result": "variations"}, {"measurement": "percentage of natural killer (NK) cells of CD45+ cells", "setting": "[5]; compared to the control-treated group", "result": "higher"}, {"measurement": "tumors, based on tumor volume and total cells isolated from the entire tumors", "setting": "[5]; compared with control group", "result": "significantly suppressed"}, {"measurement": "M1 macrophage levels", "setting": "[4]; Socs3 neuronal deficient tumor", "result": "promote M1 macrophage levels"}, {"measurement": "M2 macrophage levels", "setting": "[4]; Socs3 neuronal deficient tumor", "result": "reducing M2 macrophage levels"}, {"measurement": "M1 macrophage levels", "setting": "[4]; wild-type tumor", "result": "promoted M1 macrophage levels"}, {"measurement": "M2 macrophage levels", "setting": "[4]; wild-type tumor", "result": "did not change M2 macrophage levels"}, {"measurement": "Socs3 levels", "setting": "[6]", "result": "increased Socs3 levels"}]}, {"molecule": "COc1cc2c(cc1OC)C(=O)C(CC1CCN(Cc3ccccc3)CC1)C2", "note": "(stereo not shown) [donepezil]", "values": [{"measurement": "tumor growth, LLC tumor cells", "setting": "[2]; [8]", "result": "prevented tumor growth"}, {"measurement": "tumor growth, B16F10 tumor cells", "setting": "[3]; [8]", "result": "prevented tumor growth"}, {"measurement": "tumor growth rate, homozygous alpha-7 AChR knockout mice", "setting": "[7]", "result": "robust reduction of tumor growth rate"}, {"measurement": "tumor growth, heterozygote alpha-7 AChR knockout mice", "setting": "[7]", "result": "significant reduction in tumor growth"}, {"measurement": "F4/80+/CD11c+ (M1 macrophage) cells", "setting": "[4]; mouse, in vivo", "result": "expanded population"}, {"measurement": "TIDC population (CD45+; F4/80+; CD11c+ cells)", "setting": "[4]; mouse, in vivo", "result": "expanded"}]}, {"molecule": "O=C1NC[C@@]2(CN3CCC2CC3)O1", "note": "[AR-R17779, (2S)-2′H-spiro[4-azabicyclo[2.2.2]octane-2,5′-[1,3]oxazolidin]-2′-one]", "values": [{"measurement": "tumor growth, LLC tumor cells", "setting": "[2]; [8]", "result": "significantly prevented tumor growth"}, {"measurement": "tumor size", "setting": "[2]; day 10 post-implantation in model mice", "result": "decreased tumor size"}, {"measurement": "M1 macrophage levels", "setting": "[4]; Socs3 neuronal deficient tumor", "result": "promoted M1 macrophage levels"}, {"measurement": "M2 macrophage levels", "setting": "[4]; Socs3 neuronal deficient tumor", "result": "not promoting M2 macrophage levels"}, {"measurement": "M1 macrophage levels", "setting": "[4]; wild-type tumor", "result": "promoted M1 macrophage levels"}, {"measurement": "M2 macrophage levels", "setting": "[4]; wild-type tumor", "result": "did not change M2 macrophage levels"}]}]}
